Results taken from paper PMC4355085 (Cancer discovery, 2014).

Target: EphA2 (Homo sapiens, UniProt P29317)
Test: cell-free kinase assay
Type: biochemical

EphA2, sequence (P29317 24-976): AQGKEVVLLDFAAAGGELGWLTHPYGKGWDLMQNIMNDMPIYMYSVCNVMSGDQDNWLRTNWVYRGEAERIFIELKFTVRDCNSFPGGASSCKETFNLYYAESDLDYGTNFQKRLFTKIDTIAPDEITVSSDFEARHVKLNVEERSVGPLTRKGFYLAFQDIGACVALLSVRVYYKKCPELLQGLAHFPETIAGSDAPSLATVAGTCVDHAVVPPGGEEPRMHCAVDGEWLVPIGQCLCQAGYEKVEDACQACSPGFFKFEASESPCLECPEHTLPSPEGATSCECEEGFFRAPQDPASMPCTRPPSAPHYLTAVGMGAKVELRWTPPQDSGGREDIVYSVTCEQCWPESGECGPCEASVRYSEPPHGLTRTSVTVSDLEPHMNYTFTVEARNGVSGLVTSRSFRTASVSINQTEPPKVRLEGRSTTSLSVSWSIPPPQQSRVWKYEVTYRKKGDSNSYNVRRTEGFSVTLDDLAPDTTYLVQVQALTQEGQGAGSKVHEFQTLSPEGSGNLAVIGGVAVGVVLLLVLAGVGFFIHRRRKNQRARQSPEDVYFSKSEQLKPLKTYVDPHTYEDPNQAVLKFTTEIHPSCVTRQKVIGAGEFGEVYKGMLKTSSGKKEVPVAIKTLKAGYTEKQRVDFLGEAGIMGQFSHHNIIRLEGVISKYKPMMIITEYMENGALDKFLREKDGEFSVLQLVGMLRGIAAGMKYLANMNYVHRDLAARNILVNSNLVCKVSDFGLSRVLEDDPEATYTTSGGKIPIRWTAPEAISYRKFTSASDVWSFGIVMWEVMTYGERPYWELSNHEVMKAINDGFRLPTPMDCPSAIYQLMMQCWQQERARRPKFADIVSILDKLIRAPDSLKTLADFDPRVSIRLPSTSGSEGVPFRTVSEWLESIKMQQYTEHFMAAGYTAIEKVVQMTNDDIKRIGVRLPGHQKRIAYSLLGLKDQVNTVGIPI

IC50: 0.0771 µM
SMILES: CCN1CCN(Cc2ccc(NC(=O)c3ccc(C)c(/C=C/c4cnc5[nH]ccc5c4OC)c3)cc2C(F)(F)F)CC1 [HG-6-64-1]
